Key:
lipoamide = compound: NC(=O)CCCCC1CCSS1 [lipoamide]; experiment: thermal stability z-score vs DMSO; higher = more thermally stabilized by treatment; settings: HeLa, lipoamide concentration 100 µM
Protocol: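 Cellular thermal proteome profiling in HeLa cells. Cells were treated with 100 µM lipoamide for 1 h, with or without 1 mM arsenate for a further 1 h, then heated to ten temperatures (37-66.3 °C), and soluble protein was quantified by TMT mass spectrometry relative to 0.1% DMSO controls. The thermal stability score (sum of log2 fold changes minus the abundance score) was transformed to a z-score; mean of n = 3 experiments.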

potassium arsenate = compound: O=[As]([O-])(O)O.[K+] [potassium arsenate]; experiment: as above; settings: HeLa; arsenate concentration 1 mM
Protocol: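 Cellular thermal proteome profiling in HeLa cells treated with 1 mM arsenate for 1 h (DMSO pretreatment), heated to ten temperatures (37-66.3 °C). Soluble protein was quantified by TMT mass spectrometry relative to DMSO controls; the thermal stability score was transformed to a z-score; mean of n = 3 experiments.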

[1] = arsenate co-treatment: 1 mM arsenate 1 h
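Note: each temperature applied for 3 min, abundance score taken as mean log2 fold change at the two lowest temperatures, z-score obtained by mean subtraction and division by SD.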

UniProt O95822, sequence (O95822 whole entry): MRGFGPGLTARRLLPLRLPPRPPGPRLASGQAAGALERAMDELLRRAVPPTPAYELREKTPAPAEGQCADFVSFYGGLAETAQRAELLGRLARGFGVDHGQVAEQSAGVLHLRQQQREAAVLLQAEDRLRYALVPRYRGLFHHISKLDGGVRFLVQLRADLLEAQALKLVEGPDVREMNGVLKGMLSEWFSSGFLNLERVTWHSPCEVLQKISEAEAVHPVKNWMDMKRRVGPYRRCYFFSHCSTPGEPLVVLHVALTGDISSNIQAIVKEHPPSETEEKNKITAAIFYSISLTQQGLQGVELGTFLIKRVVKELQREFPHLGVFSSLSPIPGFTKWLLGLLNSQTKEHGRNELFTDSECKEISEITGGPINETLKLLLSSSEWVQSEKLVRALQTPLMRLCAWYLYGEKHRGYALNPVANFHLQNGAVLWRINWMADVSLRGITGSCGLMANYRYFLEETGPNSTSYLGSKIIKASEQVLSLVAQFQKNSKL
UniProt Q9Y303, sequence (Q9Y303 whole entry): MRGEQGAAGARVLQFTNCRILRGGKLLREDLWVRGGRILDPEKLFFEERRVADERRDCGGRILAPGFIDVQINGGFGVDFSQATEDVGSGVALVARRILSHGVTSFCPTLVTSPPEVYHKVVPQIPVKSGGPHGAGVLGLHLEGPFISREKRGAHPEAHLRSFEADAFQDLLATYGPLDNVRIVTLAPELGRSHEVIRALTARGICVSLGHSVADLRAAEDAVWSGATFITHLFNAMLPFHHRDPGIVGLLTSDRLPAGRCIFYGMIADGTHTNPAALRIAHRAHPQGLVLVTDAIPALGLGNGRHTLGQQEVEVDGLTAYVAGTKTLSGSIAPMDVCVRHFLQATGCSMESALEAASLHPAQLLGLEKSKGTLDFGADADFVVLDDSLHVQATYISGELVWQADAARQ
UniProt Q9GZR1, sequence (Q9GZR1 whole entry): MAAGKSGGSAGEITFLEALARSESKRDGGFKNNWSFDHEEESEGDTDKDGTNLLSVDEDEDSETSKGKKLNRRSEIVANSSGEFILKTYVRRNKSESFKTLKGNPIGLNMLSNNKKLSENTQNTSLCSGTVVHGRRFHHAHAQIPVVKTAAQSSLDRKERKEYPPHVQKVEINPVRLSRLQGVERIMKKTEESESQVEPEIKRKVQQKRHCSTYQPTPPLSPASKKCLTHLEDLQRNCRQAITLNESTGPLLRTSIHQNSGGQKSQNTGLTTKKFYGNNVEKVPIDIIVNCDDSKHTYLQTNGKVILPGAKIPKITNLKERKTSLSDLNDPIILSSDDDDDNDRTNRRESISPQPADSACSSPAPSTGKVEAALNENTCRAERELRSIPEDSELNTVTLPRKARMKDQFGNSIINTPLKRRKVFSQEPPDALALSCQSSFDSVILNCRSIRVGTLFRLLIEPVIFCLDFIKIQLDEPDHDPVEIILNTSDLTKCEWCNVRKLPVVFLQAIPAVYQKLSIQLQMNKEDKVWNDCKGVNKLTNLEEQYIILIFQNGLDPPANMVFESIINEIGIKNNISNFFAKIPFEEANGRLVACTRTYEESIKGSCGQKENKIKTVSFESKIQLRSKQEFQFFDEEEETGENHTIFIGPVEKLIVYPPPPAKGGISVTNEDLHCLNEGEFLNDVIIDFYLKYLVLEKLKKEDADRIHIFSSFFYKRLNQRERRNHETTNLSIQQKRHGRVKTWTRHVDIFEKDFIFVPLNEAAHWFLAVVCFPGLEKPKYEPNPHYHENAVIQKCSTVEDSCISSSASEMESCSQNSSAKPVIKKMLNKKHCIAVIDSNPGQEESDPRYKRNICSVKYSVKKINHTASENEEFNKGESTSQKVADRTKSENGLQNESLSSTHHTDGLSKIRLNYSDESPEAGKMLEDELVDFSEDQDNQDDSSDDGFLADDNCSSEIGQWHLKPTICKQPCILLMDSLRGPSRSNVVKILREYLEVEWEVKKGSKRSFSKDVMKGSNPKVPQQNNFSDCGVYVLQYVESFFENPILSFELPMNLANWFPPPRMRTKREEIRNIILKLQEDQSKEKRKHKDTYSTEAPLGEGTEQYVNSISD
UniProt Q9H7D7, sequence (Q9H7D7 whole entry): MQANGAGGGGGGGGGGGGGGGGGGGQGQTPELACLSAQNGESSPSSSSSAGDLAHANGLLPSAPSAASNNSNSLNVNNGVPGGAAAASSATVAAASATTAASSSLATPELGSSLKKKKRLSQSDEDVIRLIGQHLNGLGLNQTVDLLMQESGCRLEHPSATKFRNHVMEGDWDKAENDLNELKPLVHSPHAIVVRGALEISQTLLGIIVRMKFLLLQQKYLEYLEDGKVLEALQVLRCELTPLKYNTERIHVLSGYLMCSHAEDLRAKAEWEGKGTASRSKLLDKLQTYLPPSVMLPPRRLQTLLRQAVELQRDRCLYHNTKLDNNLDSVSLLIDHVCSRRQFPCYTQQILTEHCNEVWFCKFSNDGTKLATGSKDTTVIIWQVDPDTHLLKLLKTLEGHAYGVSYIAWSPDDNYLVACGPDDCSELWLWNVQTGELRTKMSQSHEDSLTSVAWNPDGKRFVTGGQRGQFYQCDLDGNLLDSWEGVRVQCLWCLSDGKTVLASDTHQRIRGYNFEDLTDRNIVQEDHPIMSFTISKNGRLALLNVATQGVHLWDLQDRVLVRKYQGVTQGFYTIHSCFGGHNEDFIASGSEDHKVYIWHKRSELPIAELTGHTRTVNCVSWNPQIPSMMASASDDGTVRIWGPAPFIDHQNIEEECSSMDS
UniProt Q92604, sequence (Q92604 whole entry): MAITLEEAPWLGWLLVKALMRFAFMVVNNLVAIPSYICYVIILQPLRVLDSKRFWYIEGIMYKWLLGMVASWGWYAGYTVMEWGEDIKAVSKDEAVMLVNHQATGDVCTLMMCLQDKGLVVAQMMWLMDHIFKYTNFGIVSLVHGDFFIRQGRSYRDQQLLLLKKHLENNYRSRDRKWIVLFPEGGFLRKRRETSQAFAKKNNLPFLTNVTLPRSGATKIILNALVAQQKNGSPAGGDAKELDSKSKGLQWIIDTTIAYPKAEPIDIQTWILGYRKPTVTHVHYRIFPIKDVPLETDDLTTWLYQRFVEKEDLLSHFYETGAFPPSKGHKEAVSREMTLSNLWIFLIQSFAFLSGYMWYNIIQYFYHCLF
UniProt Q6IN85, sequence (Q6IN85 whole entry): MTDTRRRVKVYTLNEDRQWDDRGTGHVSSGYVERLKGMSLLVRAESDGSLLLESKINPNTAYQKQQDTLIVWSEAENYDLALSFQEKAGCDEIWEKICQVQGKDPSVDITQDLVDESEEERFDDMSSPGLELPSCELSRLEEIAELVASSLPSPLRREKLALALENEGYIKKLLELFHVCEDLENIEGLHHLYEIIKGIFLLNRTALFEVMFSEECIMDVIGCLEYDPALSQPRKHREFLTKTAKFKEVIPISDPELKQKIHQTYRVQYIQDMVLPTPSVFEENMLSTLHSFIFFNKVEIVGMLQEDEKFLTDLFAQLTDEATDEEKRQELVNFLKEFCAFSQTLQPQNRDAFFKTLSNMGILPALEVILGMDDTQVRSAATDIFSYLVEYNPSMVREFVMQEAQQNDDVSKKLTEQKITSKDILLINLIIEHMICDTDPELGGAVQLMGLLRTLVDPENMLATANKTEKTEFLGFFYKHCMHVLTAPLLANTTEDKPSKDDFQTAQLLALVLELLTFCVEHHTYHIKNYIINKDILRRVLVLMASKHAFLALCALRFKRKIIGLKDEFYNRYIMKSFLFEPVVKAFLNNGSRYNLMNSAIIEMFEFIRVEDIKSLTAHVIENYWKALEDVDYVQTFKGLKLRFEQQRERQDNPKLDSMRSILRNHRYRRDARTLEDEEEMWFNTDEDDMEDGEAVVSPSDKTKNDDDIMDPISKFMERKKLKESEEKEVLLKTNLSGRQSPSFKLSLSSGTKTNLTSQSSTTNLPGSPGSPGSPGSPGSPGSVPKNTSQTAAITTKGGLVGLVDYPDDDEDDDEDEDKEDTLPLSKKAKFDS
UniProt Q9Y4C2, sequence (Q9Y4C2 whole entry): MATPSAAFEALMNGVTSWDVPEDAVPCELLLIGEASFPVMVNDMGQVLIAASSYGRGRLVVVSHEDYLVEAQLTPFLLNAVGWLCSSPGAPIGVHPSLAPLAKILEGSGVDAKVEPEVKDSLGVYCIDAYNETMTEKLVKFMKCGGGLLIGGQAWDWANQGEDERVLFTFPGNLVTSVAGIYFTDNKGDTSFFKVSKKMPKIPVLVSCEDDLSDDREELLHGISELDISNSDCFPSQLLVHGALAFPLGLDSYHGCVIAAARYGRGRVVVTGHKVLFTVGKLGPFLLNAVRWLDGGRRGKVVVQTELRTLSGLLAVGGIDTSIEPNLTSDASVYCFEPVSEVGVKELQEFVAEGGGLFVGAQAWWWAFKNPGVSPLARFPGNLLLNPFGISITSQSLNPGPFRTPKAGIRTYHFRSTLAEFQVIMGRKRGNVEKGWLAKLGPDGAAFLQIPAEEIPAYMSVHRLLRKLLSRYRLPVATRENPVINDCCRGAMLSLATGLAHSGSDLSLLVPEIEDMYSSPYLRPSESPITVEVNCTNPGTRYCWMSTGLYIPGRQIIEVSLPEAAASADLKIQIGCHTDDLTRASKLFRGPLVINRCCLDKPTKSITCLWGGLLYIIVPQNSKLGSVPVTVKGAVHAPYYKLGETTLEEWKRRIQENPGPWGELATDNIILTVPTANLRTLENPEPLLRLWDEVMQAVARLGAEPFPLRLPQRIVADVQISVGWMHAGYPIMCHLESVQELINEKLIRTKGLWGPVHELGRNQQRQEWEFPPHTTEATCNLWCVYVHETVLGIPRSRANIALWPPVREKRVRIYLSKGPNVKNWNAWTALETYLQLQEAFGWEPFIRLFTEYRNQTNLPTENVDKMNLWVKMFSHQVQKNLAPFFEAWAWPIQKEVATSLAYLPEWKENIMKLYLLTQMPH
UniProt Q9BV40, sequence (Q9BV40 whole entry): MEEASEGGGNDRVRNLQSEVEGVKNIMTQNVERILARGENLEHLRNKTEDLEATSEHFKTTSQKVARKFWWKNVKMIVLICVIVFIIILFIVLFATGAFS
UniProt Q9NP97, sequence (Q9NP97 whole entry): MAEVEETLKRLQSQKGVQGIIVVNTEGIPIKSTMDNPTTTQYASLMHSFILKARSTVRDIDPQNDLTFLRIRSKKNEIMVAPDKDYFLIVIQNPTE

Target	thermal stability z-score (lipoamide; [1])	thermal stability z-score (lipoamide; arsenate co-treatment: none)	thermal stability z-score (potassium arsenate)
U2AF2 (UniProt P26368)	-0.241	-0.169	-1.31
KPNB1 (UniProt Q14974)	-0.211	0.374	0.0471
CMSS1 (UniProt Q9BQ75)	0.27	0.0303	-2.12
RAVER1 (UniProt Q8IY67)	-0.141	-0.0728	-0.162
KEAP1 (UniProt Q14145)	2.32	2.11	4.65
MPHOSPH10 (UniProt O00566)	0.544	0.827	0.849
CHD4 (UniProt Q14839)	0.305	0.561	-0.759
NCKAP5L (UniProt Q9HCH0)	-0.000592	0.244	0.264
TCEAL1 (UniProt Q15170)	0.347	0.809	0.192
GDAP2 (UniProt Q9NXN4)	-0.0509	-0.305	-0.255
RGS10 (UniProt O43665)	0.748	0.902	0.0472
LPGAT1 (UniProt Q92604)	-0.218	0.0487	0.251
C17ORF80 (UniProt Q9BSJ5)	-1.48	-1.08	-0.529
DYNLRB1 (UniProt Q9NP97)	-0.37	0.743	0.237
PATL1 (UniProt Q86TB9)	-0.613	-0.623	-0.0875
ALDH1L2 (UniProt Q3SY69)	-0.223	0.327	0.559
GTSE1 (UniProt Q9NYZ3)	-0.0607	0.0853	-0.213
PPP4R3A (UniProt Q6IN85)	0.268	0.184	-0.165
GNB1 (UniProt P62873)	0.979	0.0629	-0.776
RAB23 (UniProt Q9ULC3)	0.712	0.437	-0.626
EIF3F (UniProt O00303)	-0.117	-0.0503	-0.156
PRSS56 (UniProt P0CW18)	-3.63	-2.95	0.756
ASPH (UniProt Q12797)	-2.27	-2.04	0.014
AMDHD2 (UniProt Q9Y303)	0.0258	0.186	1.3
TULP3 (UniProt O75386)	-0.00846	0.00888	-0.00993
C9ORF40 (UniProt Q8IXQ3)	-0.129	0.33	0.0372
MLYCD (UniProt O95822)	0.771	0.713	0.837
TUBB6 (UniProt Q9BUF5)	-0.348	0.0923	0.532

Target	thermal stability z-score (lipoamide; [1])	thermal stability z-score (lipoamide; arsenate co-treatment: none)	thermal stability z-score (potassium arsenate)
PTPN2 (UniProt P17706)	0.0491	0.308	0.95
SLC25A3 (UniProt Q00325)	0.802	0.951	0.572
CLU (UniProt P10909)	-1.81	-2.08	0.0163
ERC1 (UniProt Q8IUD2)	-0.3	-0.166	0.574
UBA5 (UniProt Q9GZZ9)	-0.815	-0.52	0.622
GATAD2A (UniProt Q86YP4)	-0.0451	-0.00448	-0.412
DNAJC11 (UniProt Q9NVH1)	0.0767	-0.132	0.285
EARS2 (UniProt Q5JPH6)	-1	-0.188	0.0121
ACAA1 (UniProt P09110)	-0.181	0.335	0.919
KTN1 (UniProt Q86UP2)	0.265	0.505	0.294
UBE2M (UniProt P61081)	0.533	0.463	-0.416
WDR26 (UniProt Q9H7D7)	-0.326	-0.319	-0.602
MRPL42 (UniProt Q9Y6G3)	-1.07	-0.921	-1.61
UCHL5 (UniProt Q9Y5K5)	0.0058	0.138	0.855
VAMP8 (UniProt Q9BV40)	1.3	1.28	0.587
EIF3M (UniProt Q7L2H7)	0.136	-0.372	0.304
TCAF1 (UniProt Q9Y4C2)	0.246	0.355	0.396
JUNB (UniProt P17275)	0.208	0.791	-1.55
OSBPL11 (UniProt Q9BXB4)	-0.766	-0.267	0.989
ARF5 (UniProt P84085)	-0.258	-0.517	-0.187
SENP6 (UniProt Q9GZR1)	-0.0511	-0.0676	-0.18
NPR1 (UniProt P16066)	-0.594	-0.153	0.119
HS1BP3 (UniProt Q53T59)	-0.135	0.097	-0.105
ADPRHL2 (UniProt Q9NX46)	0.435	-0.109	-0.268
ACOT13 (UniProt Q9NPJ3)	-0.279	-0.198	-0.202
SLC25A13 (UniProt Q9UJS0)	-0.445	-0.77	-0.312
CMBL (UniProt Q96DG6)	0.865	0.482	-0.162

Source: the supplement of paper PMC12463676, “Small-molecule dissolution of stress granules by redox modulation benefits ALS models” (Nature Chemical Biology, 2025)
